In patent US6746686B2, “Coated implants” (Biocompatibles UK Limited, priority 2001, dated 2004):
Values belong to the substance of their own block, whether it stands above or below them.

Legend:
Type in all cases: physicochemical
[1] = Loading of polymer films with FITC-Dextran; conditions: FITC-Dextran mwt 4400; polymer 1.1 and polymer 2.1 coatings
Method: Steel strips (1 cm×1.5 cm) were cleaned in dichloromethane for 10 minutes using the ultra-sonics bath. 200 ul of a 50 mg/ml polymer solution was evenly coated onto the steel strips. For each polymer sample seven steel strips were coated. Coated steel strips were then dried overnight in a oven at 70° C. to cure the polymer films.
Six of the coated steel strips were placed polymer side down into a well containing a 1 mg/ml drug solution. One control sample was not loaded with drug. The steel strips were submerged for 1 hour. The steel strips were then removed from the well and the excess drug removed by dabbing the surface very gently with tissue. The steel strips were then allowed to dry for a further half hour at room temperature. Each sample was then dipped quickly in clean PBS solution to remove excess drug from the coating. (3 secs dip). Each steel strip was then placed in 3 ml of PBS solution contained in vials. Each vial was then sonicated for 20 mins at a bath temperature of 35° C. in order to extract the drug from the polymer coating. Each solution was then measured using fluorescence spectroscopy to determine the amount of drug uptake
In order to study the effect of drug molecular weight on the amount loaded into a polymer coating, a compound with a variety of molecular weights which could be detected by fluorescence had to be identified. […]

[2] = Abciximab loading and elution in vitro
Method: In this study ^125I-labelled abciximab was loaded onto stents coated with either polymer 2.2 or as a comparison a bare stent (no polymer) by immersing the stents in a solution of 2 mg/ml drug in phosphate buffered saline containing 0.001% polysorbate 80 to assist dissolution for 30 minutes at room temperature. The stents were removed and wick dried. The stents were then placed into channels each forming part of a separate circuit of recirculating ([…]) phosphate buffered saline containing 1% albumin at 37° C. The level of 1251 label remaining on the stent was determined by measuring the level of label in the circulating PBS over a period of 24 or 48 hours and reported in percentage terms. The total loading of drug on stent was also determined and found to be about 5 μg per stent for the stents coated with polymer 2.2.

[3] = Uptake of fluorescence labelled oligonucleotide on polymer 2.2 coated stent; conditions: polymer 2.2 coated stents; 30 minutes in 5 mg/ml solution in physiological saline
Method: Stents coated with polymer 2.2 were loaded with a 15-mer c-myc antisense oligonucleotide AACGTTGAGGGGCAT (sequence ID 2) labelled with a fluorescence label by immersing them for 30 minutes in a 5 mg/ml solution of the DNA in physiological saline.
The total loading was determined by placing 3 of the stents each into 3 ml PBS and sonicating for 30 minutes. The fluorescent label was quantified.

[4] = Radiolabelled (35S) heparin loading and elution, polymer 2.2 coated stents
Method: Radiolabelled (^35S) heparin (MW 8-10 kDa) was loaded onto stents coated with polymer 2.2, from a 2 mg/ml aqueous solution. To determine the total loading the stents were placed into liquid scintillant and coated for radioactivity. The mean uptake of heparin was 11 μg per stent. The stents were each placed into a volume of PBS to determine the rate of elution of heparin over a 4 hour period.

[5] = Heparin loading and release, polymer 2.1 coated stents
Method: This study investigated the ability of polymer 2.1 coated stents to take up and release a sample of unfractionated heparin with an average molecular weight of approx. 10000D.
Loading was carried out by immersion of the coated stents into a solution of heparin in PBS. A range of conditions were used to investigate the loading onto the stents.
Table 6 Summary of conditions and results of heparin loading and release Notes—*the time where released heparin reaches maximum; **the maximum weight of heparin released during a releasing experiment (see maximum point of the release profile, FIG. 2)

[6] = polymer 2.1 stent, loading 0.2 mg/ml, 30 min, released into 1 volume PBS
[7] = polymer 2.1 stent, loading 2.0 mg/ml, 30 min, released into 0.5 volume PBS
[8] = polymer 2.1 stent, loading 10 mg/ml, 5 min, released into 0.5 volume PBS

- Uptake into polymer coatings [1]: could not be detected
Substance: Fluorescein Iso Thiocyanate Dextran [FITC-Dextran]

Substance: abciximab: antibody (MW about 50 kDa) to glycoprotein IIb/IIIa
- Release time from stent ([2]; cationic polymer (2.2) vs bare stent, PBS with 1% albumin at 37° C.): released over a more extended time
- Total loading of drug on stent ([2]; stents coated with polymer 2.2, 2 mg/ml, 30 minutes, room temperature): about 5 μg per stent

- Total loading [3]: about 20 μg per stent
Substance: AACGTTGAGGGGCAT [15-mer c-myc antisense oligonucleotide]

- Mean uptake of heparin ([4]; 2 mg/ml aqueous solution): 11 μg per stent
- Release pattern ([4]; elution into PBS over 4 hours): released initially as a burst
- Time to 100% release of heparin ([4]; elution into PBS, extrapolation of 4 hour release data): about 24 hours
- Total loading ([5]; polymer 2.1 stent, loading 0.2 mg/ml, 30 min): 3.4 µg
- Tmax (time where released heparin reaches maximum) [5, 6]: 15 min
- Wmax (maximum weight of heparin released) [5, 6]: 0.73 µg
- Tmax (time where released heparin reaches maximum) [5, 7]: 20 min
- Wmax (maximum weight of heparin released) [5, 7]: 2.07 µg
- Tmax (time where released heparin reaches maximum) [5, 8]: 10 min
- Wmax (maximum weight of heparin released) [5, 8]: 13.93 µg
Substance: heparin
- Release from the stents ([5]; polymer 2.1 coated stents): released from the stents over a prolonged period of time
